Experimental data taken from patent publication US20020044971A1, “Dissolution rate of poorly soluble drugs” (priority 2000, published 2002).
Converted amounts (≈) assume the structure as drawn. Read-outs that look alike come from different tables or passages of the source.

Legend:
[1] = Volume of fluid required to achieve complete dissolution of the dose; format: physicochemical; settings: for the dose listed in Table 1
Description: The volume requirement of the boundary layer is a function of the solubilizing effect of the surfactant. This volume can be calculated by dividing the mass of the particle by the solubility of the drug.

[2] = aqueous solubility, cited from earlier work

| Structure (SMILES) | YDISSOLUTION (volume of fluid required to achieve complete dissolution) [1] [L] | Solubility [2] [µg/mL] | Solubility ([2]; measured at 39° C.) [µg/mL] |
| --- | --- | --- | --- |
| CC(C)(C)NC(=O)[C@H]1CC[C@H]2[C@@H]3CC[C@H]4NC(=O)C=C[C@]4(C)[C@H]3CC[C@]12C [Finasteride] | 5.0 | 1 (≈ 2.68 µM) | – |
| C[C@H]1O[C@@H](O[C@H]2[C@@H](O)C[C@H](O[C@H]3[C@@H](O)C[C@H](O[C@H]4CC[C@@]5(C)[C@H](CC[C@@H]6[C@@H]5C[C@@H](O)[C@]5(C)[C@@H](C7=CC(=O)OC7)CC[C@]65O)C4)O[C@@H]3C)O[C@@H]2C)C[C@H](O)[C@@H]1O [Digoxin] | 0.021 | – | – |
| COC1=CC(=O)C[C@@H](C)[C@]12Oc1c(Cl)c(OC)cc(OC)c1C2=O [Griseofulvin] | 29.4 | – | 17 (≈ 48.2 µM) |
| CCC(C)n1ncn(-c2ccc(N3CCN(c4ccc(OCC5COC(Cn6cncn6)(c6ccc(Cl)cc6Cl)O5)cc4)CC3)cc2)c1=O (stereo not drawn) [Itraconozole] | 9.9 | 1 (≈ 1.42 µM) | – |

Second part, led by results:

| YDISSOLUTION (volume of fluid required to achieve complete dissolution) [1] [L] | Structure (SMILES) | Solubility [2] [µg/mL] | Solubility ([2]; measured at 39° C.) [µg/mL] |
| --- | --- | --- | --- |
| 8.2 | CN1C(C(=O)Nc2ccccn2)=C(O)c2ccccc2S1(=O)=O [Piroxicam] | 10 (≈ 30.2 µM) | – |
| 2.0 | OC(Cn1cncn1)(Cn1cncn1)c1ccc(F)cc1F [Fluconazole] | 100 (≈ 327 µM) | – |
| 4.3 | NC(=O)N1c2ccccc2C=Cc2ccccc21 [Carbamazepine] | 400 (≈ 1690 µM) | – |
| 3.6 | O=C(O)c1cc(-c2ccc(F)cc2F)ccc1O [Diflumisal] | 10 (≈ 40 µM) | – |
